What was measured:
Type in all cases: cell-based
[1] = system: SW-620; test: NCI 60 five-dose screen SW-620; conditions: Homo sapiens, five-dose; for CC50: read-out: LC50 (the source's name) (converted)
[2] = system: NCI-H522; test: NCI 60 five-dose screen NCI-H522; conditions: Homo sapiens, five-dose; for CC50: read-out: LC50 (the source's name) (converted)
[3] = system: NCI-H460; test: NCI 60 five-dose screen NCI-H460; conditions: Homo sapiens, five-dose; for CC50: read-out: LC50 (the source's name) (converted)
[4] = system: COLO 205; test: NCI 60 five-dose screen COLO 205; conditions: Homo sapiens, five-dose; for CC50: read-out: LC50 (the source's name) (converted)
[5] = system: HCT-15; test: NCI 60 five-dose screen HCT-15; conditions: Homo sapiens, five-dose; for CC50: read-out: LC50 (the source's name) (converted)
[6] = system: HOP-92; test: NCI 60 five-dose screen HOP-92; conditions: Homo sapiens, five-dose; for CC50: read-out: LC50 (the source's name) (converted)
[7] = system: UO-31; test: NCI 60 five-dose screen UO-31; conditions: Homo sapiens, five-dose; for CC50: read-out: LC50 (the source's name) (converted)
[8] = system: LOX IMVI; test: NCI 60 five-dose screen LOX IMVI; conditions: Homo sapiens, five-dose; for CC50: read-out: LC50 (the source's name) (converted)
[9] = system: MDA-MB-231/ATCC; test: NCI 60 five-dose screen MDA-MB-231/ATCC; conditions: Homo sapiens, five-dose; for CC50: read-out: LC50 (the source's name) (converted)
[10] = system: CCRF-CEM; test: NCI 60 five-dose screen CCRF-CEM; conditions: Homo sapiens, five-dose; for CC50: read-out: LC50 (the source's name)
[11] = system: NCI-H322M; test: NCI 60 five-dose screen NCI-H322M; conditions: Homo sapiens, five-dose; for CC50: read-out: LC50 (the source's name) (converted)
[12] = system: MDA-MB-435; test: NCI 60 five-dose screen MDA-MB-435; conditions: Homo sapiens, five-dose; for CC50: read-out: LC50 (the source's name) (converted)
[13] = system: K-562; test: NCI 60 five-dose screen K-562; conditions: Homo sapiens, K562, five-dose; for CC50: read-out: LC50 (the source's name)
[14] = system: SN12C; test: NCI 60 five-dose screen SN12C; conditions: Homo sapiens, five-dose; for CC50: read-out: LC50 (the source's name) (converted)

FC(F)(F)c1cc2c(Cl)ncnc2n1CCN1CCOCC1 [NUCC-0226680]
GI50 [1]: 10.5 µM
IC50 [1]: 14.5 µM
IC (TGI) [1]: 56.2 µM
CC50 [1]: ≥ 100 µM
GI50 [2]: 1.48 µM
IC50 [2]: 2.95 µM
IC (TGI) [2]: 3.31 µM
GI50 [3]: 23.4 µM
IC50 [3]: 28.2 µM
IC (TGI) [3]: 100 µM
CC50 [3]: ≥ 100 µM
GI50 [4]: 26.3 µM
IC50 [4]: 58.9 µM
IC (TGI) [4]: 100 µM
CC50 [4]: ≥ 100 µM
GI50 [5]: 3.31 µM
IC50 [5]: 4.27 µM
IC (TGI) [5]: 17.8 µM
CC50 [5]: ≥ 100 µM
GI50 [6]: 19.1 µM
IC50 [6]: 79.4 µM
IC (TGI) [6]: 60.3 µM
CC50 [6]: ≥ 100 µM
GI50 [7]: 2.51 µM
IC50 [7]: 5.37 µM
IC (TGI) [7]: 8.91 µM
CC50 [7]: 37.2 µM
GI50 [8]: 1.74 µM
IC50 [8]: 3.02 µM
IC (TGI) [8]: 3.39 µM
CC50 [8]: 6.61 µM
GI50 [9]: 4.37 µM
IC50 [9]: 11.5 µM
IC (TGI) [9]: 18.2 µM
CC50 [9]: 53.7 µM
GI50 [10]: 16.6 µM
IC50 [10]: 35.5 µM
IC (TGI) [10]: 100 µM
CC50 [10]: ≥ 100 µM
GI50 [11]: 15.8 µM
IC50 [11]: 41.7 µM
IC (TGI) [11]: 53.7 µM
CC50 [11]: ≥ 100 µM
GI50 [12]: 13.2 µM
IC50 [12]: 22.4 µM
IC (TGI) [12]: 29.5 µM
CC50 [12]: 64.6 µM
GI50 [13]: 3.02 µM
IC50 [13]: 3.72 µM
IC (TGI) [13]: 18.6 µM
CC50 [13]: ≥ 100 µM
GI50 [14]: 19.5 µM
IC50 [14]: 38.9 µM
IC (TGI) [14]: 100 µM
CC50 [14]: ≥ 100 µM

OC1CCC(Cn2c(C(F)(F)F)cc3c(Cl)ncnc32)CC1 (centres unmarked) [NUCC-0226689]
GI50 [1]: 12.3 µM
IC50 [1]: 17 µM
IC (TGI) [1]: 38.9 µM
CC50 [1]: ≥ 100 µM
GI50 [2]: 1.55 µM
IC50 [2]: 3.09 µM
IC (TGI) [2]: 3.55 µM
CC50 [2]: 8.13 µM
GI50 [3]: 4.79 µM
IC50 [3]: 5.5 µM
IC (TGI) [3]: 16.6 µM
CC50 [3]: 53.7 µM
GI50 [4]: 24.5 µM
IC50 [4]: 45.7 µM
IC (TGI) [4]: 100 µM
CC50 [4]: ≥ 100 µM
GI50 [5]: 3.72 µM
IC50 [5]: 4.79 µM
IC (TGI) [5]: 20 µM
CC50 [5]: ≥ 100 µM
GI50 [6]: 20.4 µM
IC50 [6]: 74.1 µM
IC (TGI) [6]: 64.6 µM
CC50 [6]: ≥ 100 µM
GI50 [7]: 15.1 µM
IC50 [7]: 38.9 µM
IC (TGI) [7]: 66.1 µM
CC50 [7]: ≥ 100 µM
GI50 [8]: 1.7 µM
IC50 [8]: 3.02 µM
IC (TGI) [8]: 3.16 µM
CC50 [8]: 5.75 µM
GI50 [9]: 4.47 µM
IC50 [9]: 11 µM
IC (TGI) [9]: 20 µM
CC50 [9]: 69.2 µM
GI50 [10]: 5.62 µM
IC50 [10]: 9.33 µM
IC (TGI) [10]: 100 µM
CC50 [10]: ≥ 100 µM
GI50 [11]: 3.8 µM
IC50 [11]: 10.2 µM
IC (TGI) [11]: 13.5 µM
CC50 [11]: 38 µM
GI50 [12]: 12 µM
IC50 [12]: 20 µM
IC (TGI) [12]: 25.7 µM
CC50 [12]: 55 µM
GI50 [13]: 2.88 µM
IC50 [13]: 3.55 µM
IC (TGI) [13]: 100 µM
CC50 [13]: ≥ 100 µM
GI50 [14]: 5.37 µM
IC50 [14]: 10 µM
IC (TGI) [14]: 20 µM
CC50 [14]: 53.7 µM

FC(F)(F)CN1CCN(CCn2c(C(F)(F)F)cc3c(Cl)ncnc32)CC1 [NUCC-0226683]
GI50 [1]: 4.9 µM
IC50 [1]: 6.17 µM
IC (TGI) [1]: 19.5 µM
CC50 [1]: 63.1 µM
GI50 [2]: 1.7 µM
IC50 [2]: 3.24 µM
IC (TGI) [2]: 3.55 µM
CC50 [2]: 7.24 µM
GI50 [3]: 2.69 µM
IC50 [3]: 3.63 µM
IC (TGI) [3]: 6.76 µM
CC50 [3]: 30.9 µM
GI50 [4]: 18.6 µM
IC50 [4]: 33.9 µM
IC (TGI) [4]: 45.7 µM
CC50 [4]: ≥ 100 µM
GI50 [5]: 2.57 µM
IC50 [5]: 3.55 µM
IC (TGI) [5]: 7.41 µM
CC50 [5]: 50.1 µM
GI50 [6]: 12.9 µM
IC50 [6]: 32.4 µM
IC (TGI) [6]: 29.5 µM
CC50 [6]: 66.1 µM
GI50 [7]: 1.62 µM
IC50 [7]: 3.02 µM
IC (TGI) [7]: 3.24 µM
CC50 [7]: 6.61 µM
GI50 [8]: 1.66 µM
IC50 [8]: 2.95 µM
IC (TGI) [8]: 3.09 µM
CC50 [8]: 5.75 µM
GI50 [9]: 1.78 µM
IC50 [9]: 3.39 µM
IC (TGI) [9]: 4.27 µM
CC50 [9]: 11.5 µM
GI50 [10]: 4.37 µM
IC50 [10]: 7.41 µM
IC (TGI) [10]: 100 µM
CC50 [10]: ≥ 100 µM
GI50 [11]: 5.5 µM
IC50 [11]: 15.8 µM
IC (TGI) [11]: 19.1 µM
CC50 [11]: 44.7 µM
GI50 [12]: 5.5 µM
IC50 [12]: 9.12 µM
IC (TGI) [12]: 19.5 µM
CC50 [12]: 51.3 µM
GI50 [13]: 2.82 µM
IC50 [13]: 3.47 µM
IC (TGI) [13]: 100 µM
CC50 [13]: ≥ 100 µM
GI50 [14]: 7.76 µM
IC50 [14]: 13.8 µM
IC (TGI) [14]: 22.9 µM
CC50 [14]: 60.3 µM

From patent publication US20240109903A1, “SUBSTITUTED HETEROCYCLES FOR TREATING CANCER” (Northwestern University, priority 2022, published 2024)
